Experimental data reported in patent publication US8980924B2, “Non-retinoid RBP4 antagonist for treatment of age-related macular degeneration and stargardt disease” (The Trustees of Columbia University in the City of New York, priority 2010, dated 2015).

Tests used:
[1] = molecular target: serum RBP4 and retinol (Rattus norvegicus, UniProt P04916); conditions: reference 15; cited from earlier work
[2] = molecular target: T1, RBP4-TTR interaction (Homo sapiens, UniProt P02753); assay: TR-FRET (HTRF) RBP4-TTR interaction assay, agonist mode; assay type: biochemical; conditions: without retinol, FIG. 8
T1 construct: made in house; host or cells: E. coli
Excerpt: TR-FRET (Time-Resolved Fluorescence Resonance Energy Transfer) is an assay format that can be used in characterization of compounds affecting protein-protein interactions (31-33). […] In the presence of retinol, RBP4-TTR interaction induces FRET that can be registered as increased ratio of […] fluorescence signals. Binding of a desired RBP4 antagonist displaces retinol and induces hindrance for RBP4-TTR interaction resulting in the decreased FRET signal (FIG. 7).
The inventors developed an assay using E. coli-expressed MBP-tagged RBP4 and commercially available TTR labeled directly with Eu3+ cryptate. In addition to MBP-RBP4 and Eu3+ (K)-TTR, a detector reagent anti-MBP-d2 was present in the mix. The assay was first optimized in the agonist mode; sensitivity and dynamic range of the assay was […] in respect to RBP4, TTR and detection reagent concentrations.

[3] = tested on: A2E production; conditions: Abca4−/− mice, reference 11; cited from earlier work
[4] = tested on: insulin sensitivity; conditions: mouse diabetes models; cited from earlier work
[5] = tested on: bisretinoids (A2E/isoA2E, A2-DHP-PE, atRAL di-PE); assay: Bisretinoid levels in eyes of treated mice (tissue extraction and HPLC); assay type: in vivo; conditions: orally dosed for 3 weeks at 30 mg/kg
Excerpt: (§1) The Abca4−/− mouse model manifests accelerated accumulation of lipofuscin in the RPE and is considered a preclinical efficacy model for a drug reducing lipofuscin accumulation. […] There was approximately a 70% reduction in the serum RBP4 level in treated animals (FIG. 11). Additionally, the inventors discovered that that the levels of A2E/isoA2E were reduced by approximately 50% in treated mice (FIG. 12).
Abca4/Abcr null mutant mice (albino) homozygous for Rpe65-Leu450 are bred genotyped and housed. Posterior eyecups of mice and RPE/choroids harvested from human donor eyes (National Disease Research Interchange, Philadelphia Pa.) are homogenized in phosphate buffered saline (PBS) using a glass tissue grinder and extracted in chloroform/methanol (2:1). […] An Alliance system (Waters, Corp, Milford, Mass.) equipped with 2695 Separation Module, 2996 Photodiode Array Detector, a 2475 Multi λ Fluorescence Detector and operating with Empower® software is used for HPLC analysis. […] HPLC quantification is carried out using the Empower® software to determine peak areas. […] Molar quantity per murine eye is determined using calibration curves constructed from known concentrations of purified external standards and by normalizing to the ratio of the HPLC injection volume (10 μL) versus total extract volume.

[6] = molecular target: T2, serum RBP4 (Mus musculus, UniProt Q00724); assay: Serum RBP4 level in treated mice; assay type: in vivo; conditions: orally dosed for 3 weeks at 30 mg/kg; wild-type and Abca4−/− mice; FIG. 11
T2 construct: from tissue; host or cells: mouse serum (in vivo, oral dosing)
Excerpt: as §1

[7] = tested on: ERG b-wave; assay: ERG b-wave after photobleaching; assay type: in vivo; conditions: FIG. 10

| SMILES | effect on serum RBP4 and retinol [1] | induction of RBP4-TTR interaction [2] | effect on A2E production [3] | effect on insulin sensitivity [4] | levels of A2-DHP-PE and atRAL di-PE [5] | reduction in the serum RBP4 level [6] [%] | effect on ERG b-wave after photobleaching [7] |
| --- | --- | --- | --- | --- | --- | --- | --- |
| CC1=C(/C=C/C(C)=C/C=C/C(C)=C/C(=O)Nc2ccc(O)cc2)C(C)(C)CCC1 [fenretinide, N-(4-hydroxy-phenyl)retinamide] | reduce serum RBP4 and retinol | did not induce RBP4-TTR interaction | reduced A2E production |  |  |  |  |
| O=C(O)c1ccccc1NC(=O)N1CCC(c2ccccc2C(F)(F)F)CC1 [Compound 1, 2(4-(2-(trifluoromethyl)phenyl)piperidine-1-carboxamido)benzoic acid] |  | did not induce RBP4-TTR interaction |  | did not improve insulin sensitivity | also reduced | ~70 | does not reduce ERG b-wave |
